Laboratory results reported in patent publication US9056914B2, “Anticancer derivatives, preparation thereof and therapeutic use thereof” (priority 2010, dated 2015).

Columns and labels:
Format in all cases: cell-based
MDA-MB-231 cells = test: Inhibition of proliferation of MDA-MB-231 cells by tomaymycin dimers (14C-thymidine incorporation); conditions: Homo sapiens, MDA-MB231, 3 days culture, 14C-thymidine incorporation at 96 h, read-out: Inhibition of proliferation (14C-thymidine pulse at 96 h) IC50 MDA-MB231
Experimental: (§1) Evaluation of the Inhibition of Proliferation of the Cell Lines MDA-MB-231, MDA-A1 and HCT116 with the Compounds of Formula (IA) with RCG1=—SZa (Za=SMe) or RCG1=—C(═O)ZbRb (ZbRb=OMe)
(§2) MDA-MB-231, MDA-A1 or HCT116 cells in their exponential growth phase were trypsinized and resuspended in their respective culture medium (DMEM/F12 Gibco #21331, 10% FCS Gibco #10500-056, […] Glutamine Gibco #25030 for the MDA cells; DMEM Gibco #11960, 10% FCS Gibco #10500-056, 2 mM Glutamine Gibco #25030 for the HCT116 cells). The cell suspension was seeded in Cytostar 96-well culture plates (GE Healthcare Europe, #RPNQ0163) in the complete culture medium containing serum to a density of 5000 cells/well (MDA-MB-231, MDA-A1, HCT116). After incubation for 4 hours, successive dilutions of the tomaymycin dimers were added to the wells in triplicate for each concentration. The cells were cultured for 3 days at 37° C. under an atmosphere of 5% CO2 in the presence of the cytotoxic agents. On the fourth day, 10 μl of a solution of ^14C-thymidine (0.1 μCi/well, Perkin Elmer #NEC56825000) were added to each well. The incorporation of ^14C-thymidine was measured 96 hours after the start of the experiment with a Microbeta radioactivity counter (Perkin Elmer). The data are expressed in the form of a percentage of survival by determining the ratio between the Count obtained with the cells treated with the cytotoxic agents and that obtained with the cells of the control wells (treated with the culture medium alone).

HCT116 cells = test: Inhibition of proliferation of HCT116 cells by tomaymycin dimers (14C-thymidine incorporation); conditions: Homo sapiens, HCT-116; HCT116, 3 days culture, 14C-thymidine incorporation at 96 h; read-out: Inhibition of proliferation (14C-thymidine pulse at 96 h) IC50 HCT116
Experimental: as §1, §2

MDA-A1 cells = test: Inhibition of proliferation of MDA-A1 cells by tomaymycin dimers (14C-thymidine incorporation); conditions: MDA-A1, 3 days culture, 14C-thymidine incorporation at 96 h; read-out: Inhibition of proliferation (14C-thymidine pulse at 96 h) IC50 MDA-A1
Experimental: as §1, §2

Row | SMILES | IC50 (MDA-MB-231 cells) [pM] | IC50 (HCT116 cells) [pM] | IC50 (MDA-A1 cells) [pM]
1 | C/C=C1\C[C@H]2C=Nc3cc(OCc4cc(OCCN(CCOCCOCCOC)CC(C)(C)SSC)cc(COc5cc6c(cc5OC)C(=O)N5C/C(=C/C)C[C@H]5C=N6)n4)c(OC)cc3C(=O)N2C1 | 128 | 61 | 16300
2 | C/C=C1\C[C@H]2C=Nc3cc(OCc4cc(OCCN(CCCC(=O)OCC)CCOCCOCCOC)cc(COc5cc6c(cc5OC)C(=O)N5C/C(=C/C)C[C@H]5C=N6)n4)c(OC)cc3C(=O)N2C1 | 41 | 18 | 3460
3 | C/C=C1\C[C@H]2C=Nc3cc(OCc4cc(OCCN(CCOCCOCCOC)CCC(=O)OC)cc(COc5cc6c(cc5OC)C(=O)N5C/C(=C/C)C[C@H]5C=N6)n4)c(OC)cc3C(=O)N2C1 | 384 | 235 | 17800
4 | C/C=C1\C[C@H]2C=Nc3cc(OCc4cc(OCCN(CCOCCOCCN5CCOCC5)CC(C)(C)SSC)cc(COc5cc6c(cc5OC)C(=O)N5C/C(=C/C)C[C@H]5C=N6)n4)c(OC)cc3C(=O)N2C1 | 81 | 48 | 26500
5 | C/C=C1\C[C@H]2C=Nc3cc(OCc4cc(OCCN(CCCC(=O)OCC)C(=O)CCOCCOCCOCCOC)cc(COc5cc6c(cc5OC)C(=O)N5C/C(=C/C)C[C@H]5C=N6)n4)c(OC)cc3C(=O)N2C1 | 5660 | 4980 | > 50000
